Assay results taken from the supplement of paper PMC10307832.

Assays:
Experiment in all cases: relative viability (nuclei count vs DMSO), 5 days (fraction); higher = more cells survive
AZD8055 = compound: COc1ccc(-c2ccc3c(N4CCOC[C@@H]4C)nc(N4CCOC[C@@H]4C)nc3n2)cc1CO [AZD8055]
Method in brief: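 In 1536-well plates, lung cancer cell lines rested overnight at 37 °C before five library-drug doses (not always all listed), √10 apart, were pinned onto vehicle-anchored plates. Nuclei were counted with MetaXpress from 4× Hoechst images taken after 5 days without medium change. Viability compares treated-well with vehicle-well nuclei as a median over plates, and plates needed control CV below 25% plus at least one doubling to pass.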

AZD8055 + Luminespib = compound: COc1ccc(-c2ccc3c(N4CCOC[C@@H]4C)nc(N4CCOC[C@@H]4C)nc3n2)cc1CO [AZD8055] + CCNC(=O)c1noc(-c2cc(C(C)C)c(O)cc2O)c1-c1ccc(CN2CCOCC2)cc1 [Luminespib] (partner 0.01 µM)
Method in brief: (§1)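 Medians of duplicate plates are given as relative viability. That measure is the nuclei count in treated wells divided by the count in vehicle wells. Counts were taken on 4× images of lung cancer cell lines in 1536-well plates, 5 days after pin-tool dosing the day after seeding with one drug alone or a fixed anchor-drug dose plus five library-drug doses (not always all listed) in √10 steps.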

AZD8055 + Foretinib = compound: COc1ccc(-c2ccc3c(N4CCOC[C@@H]4C)nc(N4CCOC[C@@H]4C)nc3n2)cc1CO [AZD8055] + COc1cc2c(Oc3ccc(NC(=O)C4(C(=O)Nc5ccc(F)cc5)CC4)cc3F)ccnc2cc1OCCCN1CCOCC1 [Foretinib] (partner 0.25 µM)
Method in brief: as §1

AZD8055 + OSI-027 = compound: COc1ccc(-c2ccc3c(N4CCOC[C@@H]4C)nc(N4CCOC[C@@H]4C)nc3n2)cc1CO [AZD8055] + COc1cccc2cc(-c3nc([C@H]4CC[C@H](C(=O)O)CC4)n4ncnc(N)c34)[nH]c12 [OSI-027] (partner 0.5 µM)
Method in brief: as §1

AZD8055 + Tozasertib = compound: COc1ccc(-c2ccc3c(N4CCOC[C@@H]4C)nc(N4CCOC[C@@H]4C)nc3n2)cc1CO [AZD8055] + Cc1cc(Nc2cc(N3CCN(C)CC3)nc(Sc3ccc(NC(=O)C4CC4)cc3)n2)n[nH]1 [Tozasertib] (partner 0.1 µM)
Method in brief: as §1

AZD8055 + Dasatinib = compound: COc1ccc(-c2ccc3c(N4CCOC[C@@H]4C)nc(N4CCOC[C@@H]4C)nc3n2)cc1CO [AZD8055] + Cc1nc(Nc2ncc(C(=O)Nc3c(C)cccc3Cl)s2)cc(N2CCN(CCO)CC2)n1 [Dasatinib] (partner 0.075 µM)
Method in brief: as §1

AZD8055 + Phenformin = compound: COc1ccc(-c2ccc3c(N4CCOC[C@@H]4C)nc(N4CCOC[C@@H]4C)nc3n2)cc1CO [AZD8055] + N=C(N)NC(=N)NCCc1ccccc1 [Phenformin] (partner 250 µM)
Method in brief: as §1

AZD8055 + Trametinib = compound: COc1ccc(-c2ccc3c(N4CCOC[C@@H]4C)nc(N4CCOC[C@@H]4C)nc3n2)cc1CO [AZD8055] + CC(=O)Nc1cccc(-n2c(=O)n(C3CC3)c(=O)c3c(Nc4ccc(I)cc4F)n(C)c(=O)c(C)c32)c1 [Trametinib] (partner 0.02 µM)
Method in brief: as §1

AZD8055 + Palbociclib = compound: COc1ccc(-c2ccc3c(N4CCOC[C@@H]4C)nc(N4CCOC[C@@H]4C)nc3n2)cc1CO [AZD8055] + CC(=O)c1c(C)c2cnc(Nc3ccc(N4CCNCC4)cn3)nc2n(C2CCCC2)c1=O [Palbociclib] (partner 0.5 µM)
Method in brief: as §1

AZD8055 + AZD7762 = compound: COc1ccc(-c2ccc3c(N4CCOC[C@@H]4C)nc(N4CCOC[C@@H]4C)nc3n2)cc1CO [AZD8055] + NC(=O)Nc1cc(-c2cccc(F)c2)sc1C(=O)N[C@H]1CCCNC1 [AZD7762] (partner 0.2 µM)
Method in brief: as §1

AZD8055 + Pemetrexed = compound: COc1ccc(-c2ccc3c(N4CCOC[C@@H]4C)nc(N4CCOC[C@@H]4C)nc3n2)cc1CO [AZD8055] + Nc1nc2[nH]cc(CCc3ccc(C(=O)N[C@@H](CCC(=O)O)C(=O)O)cc3)c2c(=O)[nH]1 [Pemetrexed] (partner 0.2 µM)
Method in brief: as §1

AZD8055 + Decitabine = compound: COc1ccc(-c2ccc3c(N4CCOC[C@@H]4C)nc(N4CCOC[C@@H]4C)nc3n2)cc1CO [AZD8055] + Nc1ncn([C@H]2C[C@H](O)[C@@H](CO)O2)c(=O)n1 [Decitabine] (partner 2 µM)
Method in brief: as §1

AZD8055 + Vorinostat = compound: COc1ccc(-c2ccc3c(N4CCOC[C@@H]4C)nc(N4CCOC[C@@H]4C)nc3n2)cc1CO [AZD8055] + O=C(CCCCCCC(=O)Nc1ccccc1)NO [Vorinostat] (partner 1 µM)
Method in brief: as §1

AZD8055 + Olaparib = compound: COc1ccc(-c2ccc3c(N4CCOC[C@@H]4C)nc(N4CCOC[C@@H]4C)nc3n2)cc1CO [AZD8055] + O=C(c1cc(Cc2n[nH]c(=O)c3ccccc23)ccc1F)N1CCN(C(=O)C2CC2)CC1 [Olaparib] (partner 8 µM)
Method in brief: as §1

NCI-H1623 showed a relative viability (AZD8055; 0.01 µM) of 0.916, a relative viability (AZD8055; 0.03162 µM) of 1.03 and a relative viability (AZD8055; 0.1 µM) of 0.79. The relative viability (AZD8055; 0.3162 µM) was 0.469, the relative viability (AZD8055; 1 µM) was 0.36 and the relative viability (AZD8055 + Luminespib; first compound 0.01 µM) was 0.483. The relative viability (AZD8055 + Luminespib; first compound 0.03162 µM) was 0.434, the relative viability (AZD8055 + Luminespib; first compound 0.1 µM) was 0.343 and the relative viability (AZD8055 + Luminespib; first compound 0.3162 µM) was 0.347. It also gave a relative viability (AZD8055 + Luminespib; first compound 1 µM) of 0.278, a relative viability (AZD8055 + Foretinib; first compound 0.01 µM) of 0.885 and a relative viability (AZD8055 + Foretinib; first compound 0.03162 µM) of 1.03. For the same cell line, the relative viability (AZD8055 + Foretinib; first compound 0.1 µM) was 0.578, the relative viability (AZD8055 + Foretinib; first compound 0.3162 µM) was 0.438 and the relative viability (AZD8055 + Foretinib; first compound 1 µM) was 0.381. For the same cell line, the relative viability (AZD8055 + OSI-027; first compound 0.01 µM) was 0.419, the relative viability (AZD8055 + OSI-027; first compound 0.03162 µM) was 0.521 and the relative viability (AZD8055 + OSI-027; first compound 0.1 µM) was 0.425. It also gave a relative viability (AZD8055 + OSI-027; first compound 0.3162 µM) of 0.411, a relative viability (AZD8055 + OSI-027; first compound 1 µM) of 0.379 and a relative viability (AZD8055 + Tozasertib; first compound 0.01 µM) of 0.46. It also gave a relative viability (AZD8055 + Tozasertib; first compound 0.03162 µM) of 0.47, a relative viability (AZD8055 + Tozasertib; first compound 0.1 µM) of 0.397 and a relative viability (AZD8055 + Tozasertib; first compound 0.3162 µM) of 0.254. It also gave a relative viability (AZD8055 + Tozasertib; first compound 1 µM) of 0.288, a relative viability (AZD8055 + Dasatinib; first compound 0.01 µM) of 0.545 and a relative viability (AZD8055 + Dasatinib; first compound 0.03162 µM) of 0.584. The relative viability (AZD8055 + Dasatinib; first compound 0.1 µM) was 0.412, the relative viability (AZD8055 + Dasatinib; first compound 0.3162 µM) was 0.29 and the relative viability (AZD8055 + Dasatinib; first compound 1 µM) was 0.234. The relative viability (AZD8055 + Phenformin; first compound 0.01 µM) was 0.586, the relative viability (AZD8055 + Phenformin; first compound 0.03162 µM) was 0.597 and the relative viability (AZD8055 + Phenformin; first compound 0.1 µM) was 0.521. The relative viability (AZD8055 + Phenformin; first compound 0.3162 µM) was 0.324 and the relative viability (AZD8055 + Phenformin; first compound 1 µM) was 0.316.

SW 900 was tested, and the relative viability (AZD8055; 0.01 µM) was 0.827, the relative viability (AZD8055; 0.03162 µM) was 0.783 and the relative viability (AZD8055; 0.1 µM) was 0.704. The relative viability (AZD8055; 0.3162 µM) was 0.513, the relative viability (AZD8055; 1 µM) was 0.236 and the relative viability (AZD8055 + Trametinib; first compound 0.01 µM) was 0.897. It also gave a relative viability (AZD8055 + Trametinib; first compound 0.03162 µM) of 0.783, a relative viability (AZD8055 + Trametinib; first compound 0.1 µM) of 0.622 and a relative viability (AZD8055 + Trametinib; first compound 0.3162 µM) of 0.374. It also gave a relative viability (AZD8055 + Trametinib; first compound 1 µM) of 0.505, a relative viability (AZD8055 + Palbociclib; first compound 0.01 µM) of 0.546 and a relative viability (AZD8055 + Palbociclib; first compound 0.03162 µM) of 0.559. The relative viability (AZD8055 + Palbociclib; first compound 0.1 µM) was 0.474, the relative viability (AZD8055 + Palbociclib; first compound 0.3162 µM) was 0.261 and the relative viability (AZD8055 + Palbociclib; first compound 1 µM) was 0.289. It also gave a relative viability (AZD8055 + Luminespib; first compound 0.01 µM) of 0.172, a relative viability (AZD8055 + Luminespib; first compound 0.03162 µM) of 0.182 and a relative viability (AZD8055 + Luminespib; first compound 0.1 µM) of 0.17. It also gave a relative viability (AZD8055 + Luminespib; first compound 0.3162 µM) of 0.177, a relative viability (AZD8055 + Luminespib; first compound 1 µM) of 0.16 and a relative viability (AZD8055 + Foretinib; first compound 0.01 µM) of 1.03. For the same cell line, the relative viability (AZD8055 + Foretinib; first compound 0.03162 µM) was 0.86, the relative viability (AZD8055 + Foretinib; first compound 0.1 µM) was 0.647 and the relative viability (AZD8055 + Foretinib; first compound 0.3162 µM) was 0.654. For the same cell line, the relative viability (AZD8055 + Foretinib; first compound 1 µM) was 0.409, the relative viability (AZD8055 + OSI-027; first compound 0.01 µM) was 0.592 and the relative viability (AZD8055 + OSI-027; first compound 0.03162 µM) was 0.602. It also gave a relative viability (AZD8055 + OSI-027; first compound 0.1 µM) of 0.536, a relative viability (AZD8055 + OSI-027; first compound 0.3162 µM) of 0.311 and a relative viability (AZD8055 + OSI-027; first compound 1 µM) of 0.196. The relative viability (AZD8055 + Tozasertib; first compound 0.01 µM) was 0.567, the relative viability (AZD8055 + Tozasertib; first compound 0.03162 µM) was 0.747 and the relative viability (AZD8055 + Tozasertib; first compound 0.1 µM) was 0.425. It also gave a relative viability (AZD8055 + Tozasertib; first compound 0.3162 µM) of 0.285, a relative viability (AZD8055 + Tozasertib; first compound 1 µM) of 0.34 and a relative viability (AZD8055 + Dasatinib; first compound 0.01 µM) of 0.622. The relative viability (AZD8055 + Dasatinib; first compound 0.03162 µM) was 0.691, the relative viability (AZD8055 + Dasatinib; first compound 0.1 µM) was 0.535 and the relative viability (AZD8055 + Dasatinib; first compound 0.3162 µM) was 0.177. The relative viability (AZD8055 + Dasatinib; first compound 1 µM) was 0.184, the relative viability (AZD8055 + Phenformin; first compound 0.01 µM) was 0.568 and the relative viability (AZD8055 + Phenformin; first compound 0.03162 µM) was 0.343. For the same cell line, the relative viability (AZD8055 + Phenformin; first compound 0.1 µM) was 0.489, the relative viability (AZD8055 + Phenformin; first compound 0.3162 µM) was 0.368 and the relative viability (AZD8055 + Phenformin; first compound 1 µM) was 0.169. For the same cell line, the relative viability (AZD8055 + AZD7762; first compound 0.01 µM) was 0.538, the relative viability (AZD8055 + AZD7762; first compound 0.03162 µM) was 1.01 and the relative viability (AZD8055 + AZD7762; first compound 0.1 µM) was 0.54. The relative viability (AZD8055 + AZD7762; first compound 0.3162 µM) was 0.324, the relative viability (AZD8055 + AZD7762; first compound 1 µM) was 0.268 and the relative viability (AZD8055 + Pemetrexed; first compound 0.01 µM) was 0.493. The relative viability (AZD8055 + Pemetrexed; first compound 0.03162 µM) was 0.469, the relative viability (AZD8055 + Pemetrexed; first compound 0.1 µM) was 0.512 and the relative viability (AZD8055 + Pemetrexed; first compound 0.3162 µM) was 0.353. It also gave a relative viability (AZD8055 + Pemetrexed; first compound 1 µM) of 0.241, a relative viability (AZD8055 + Decitabine; first compound 0.01 µM) of 0.459 and a relative viability (AZD8055 + Decitabine; first compound 0.03162 µM) of 0.519. It also gave a relative viability (AZD8055 + Decitabine; first compound 0.1 µM) of 0.472, a relative viability (AZD8055 + Decitabine; first compound 0.3162 µM) of 0.492 and a relative viability (AZD8055 + Decitabine; first compound 1 µM) of 0.47. For the same cell line, the relative viability (AZD8055 + Vorinostat; first compound 0.01 µM) was 0.461, the relative viability (AZD8055 + Vorinostat; first compound 0.03162 µM) was 0.499 and the relative viability (AZD8055 + Vorinostat; first compound 0.1 µM) was 0.538. The relative viability (AZD8055 + Vorinostat; first compound 0.3162 µM) was 0.325, the relative viability (AZD8055 + Vorinostat; first compound 1 µM) was 0.265 and the relative viability (AZD8055 + Olaparib; first compound 0.01 µM) was 0.812. It also gave a relative viability (AZD8055 + Olaparib; first compound 0.03162 µM) of 0.952, a relative viability (AZD8055 + Olaparib; first compound 0.1 µM) of 0.719 and a relative viability (AZD8055 + Olaparib; first compound 0.3162 µM) of 0.48. It also gave a relative viability (AZD8055 + Olaparib; first compound 1 µM) of 0.502.
